Reference: US8410310B2, “Trypsin-like serine protease inhibitors, and their preparation and use” (The Medicines Company (Leipzig) GmbH, priority 2006, dated 2013)
Like-named read-outs stand apart in the source and are kept apart here.

How the values were obtained:
[1] = tested on: t-PA-induced lysis of whole blood clots; assay: Whole blood fibrinolysis assay (ROTEM, EXTEM with t-PA); type: cell-based, human; details: human whole blood, t-PA 100 U/mL, Ly60; read-out: concentration resulting in 50% suppression of clot lysis (IC50, median [25%; 75% percentile])
Description: (§1) Venous blood was withdrawn from the antecubital vein from healthy volunteers after written informed consent in accordance with local and federal guidelines with approval of the local review board (Ethikkommission, Klinikum Charité, Sauerbruchweg 5, 10117 Berlin). The blood was mixed with 0.11 mol/L sodium citrate (1:10). For ROTEM® analysis, whole citrated blood was used within 8 h after collection. Platelet-rich plasma (PRP) was prepared from citrated blood by centrifugation at 330×g for 10 min at room temperature, platelet-poor plasma (PPP) was collected following centrifugation at 1220×g for 12 min. The PRP was then adjusted to 3×10^8 platelets per mL using the autologous PPP. PRP was maintained at room temperature for less than 4 h before analysis. The remaining PPP was subjected to a high-speed centrifugation at 40,000×g for 30 min at 4° C. to remove any particulate material and was then stored at −70° C. until use.
(§2) The antifibrinolytic activity of Compound No. 3 in comparison to aprotinin and tranexamic acid was investigated in plasma and whole blood assays. In both assays, tissue factor was added to initiate rapid clot formation via the extrinsic pathway which produces a clot that remains stable for several hours under normal conditions. Supplementation of plasma or whole blood with tissue-type plasminogen activator (t-PA) before stimulation results in activation of endogenous plasminogen and thus fibrinolysis while the initial clot formation is not impaired. […] A final concentration of 50 U/mL and 100 U/mL in plasma and whole blood, respectively, was chosen to achieve complete lysis within about 60 min. In the presence of antifibrinolytics, clot lysis is delayed in a concentration-dependent manner.
Fibrinolysis in whole blood was studied with rotational thromboelastometry (Luddington, Clin. Lab. Haematol. 27: 81-90, 2005) using a computerized, multi-channel ROTEM® instrument (Pentapharm, Munich, Germany) (Ganter et al., Anesth. Analg. 106: 1366-75, 2008). Activation of test samples accelerated the measurement process and enhanced reproducibility compared with conventional thromboelastography. To allow observation of fibrinolysis, ROTEM® analysis with tissue factor activation (EXTEM) was modified through addition of t-PA (Nielsen et al. Blood Coagul. Fibrinolysis 17: 75-81, 2006). Citrated blood was pre-incubated at 37° C. for 5 min with test compound or saline before tissue factor, CaCl2 and t-PA (100 U/mL final concentration) were added to start the reaction. Fibrinolysis was determined by measuring loss of clot strength with time and was recorded as Ly60 (percentage reduction of the maximum amplitude at 60 min after the onset of clotting). In control samples without inhibitor, clots were lysed completely within 60 min, such that Ly60 was above 90%. By plotting Ly60 versus test compound concentration, IC50 values for each compound were calculated.

[2] = tested on: t-PA-induced fibrinolysis in plasma; assay: Plasma fibrinolysis assay (turbidometric); type: biochemical; details: human plasma, t-PA 50 U/mL; read-out: IC50 on t-PA-induced fibrinolysis in plasma (median [25%; 75% percentile])
Description: as §1, §2
Inhibition of fibrinolysis in plasma was examined using a turbidometric method in 96-well flat-bottom plates. The time course of clot formation and lysis, reflected by an initial increase and subsequent decrease in turbidity, was recorded by continuously measuring the optical density (OD) at 405 nm. Similar models have been used widely to study the clot lysis process in human plasma (Kim et al., J. Thromb. Haemost. 5: 1250-6, 2007) as well as its inhibition by antifibrinolytic drugs (Sperzel et al., J. Thromb. Haemost. 5: 2113-8, 2007). Frozen and thawed human plasma (PPP) was pre-incubated with test compound or vehicle (Owren's Veronal buffer) for 5 min at 37° C. […] OD at 405 nm was monitored every 45 s for 180 min at 37° C. with a microplate reader (POLARstar OPTIMA, BMG Labtech, Offenburg, Germany). Fibrinolysis was quantified as the relative decrease in OD at 45 min after the maximum OD was reached. […]

Xa = Xa (Homo sapiens, UniProt P00742); assay: Determination of inhibition constants for Xa; type: biochemical
Xa, sequence (P00742 235-488 limits assumed): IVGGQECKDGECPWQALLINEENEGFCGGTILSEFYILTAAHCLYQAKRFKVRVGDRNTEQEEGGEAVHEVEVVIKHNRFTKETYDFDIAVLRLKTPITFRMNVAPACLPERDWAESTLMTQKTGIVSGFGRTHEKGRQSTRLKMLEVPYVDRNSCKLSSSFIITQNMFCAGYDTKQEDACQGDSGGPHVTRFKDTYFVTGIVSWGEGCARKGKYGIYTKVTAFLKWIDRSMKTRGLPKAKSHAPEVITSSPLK
Xa, sequence (P00742 41-179 limits assumed): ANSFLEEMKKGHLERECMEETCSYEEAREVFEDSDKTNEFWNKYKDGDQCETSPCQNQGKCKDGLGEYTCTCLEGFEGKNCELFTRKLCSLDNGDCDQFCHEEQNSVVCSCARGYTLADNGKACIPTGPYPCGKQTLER
Description: (§3) The inhibitory effect for the individual enzymes was determined in analogy to a previously disclosed method (Stürzebecher et al., 1997).
(§4) For zero order kinetics, the reaction was stopped after 20 min by adding 25 μl of acetic acid (50% v/v), and the absorption at 405 nm was determined using a Microplate Reader (Multiscan Ascent, from Thermo). In the case of pseudo-first order kinetics, the reaction rates in the equilibrium state were ascertained by recording the reaction kinetics. The Ki values were ascertained either in accordance with Dixon (1953) by linear regression using a computer program or by parameter fitting in accordance with the rate equation for competitive inhibition. The Ki values are the average of at least two determinations.

Thrombin = Thrombin (Homo sapiens, UniProt P00734); assay: Determination of inhibition constants for thrombin; type: biochemical
Description: as §3, §4

plasmin = plasmin (Homo sapiens, UniProt P00747); assay: Determination of inhibition constants for plasmin; type: biochemical; design: purchased Calbiochem
plasmin, sequence (P00747 581-810 limits assumed): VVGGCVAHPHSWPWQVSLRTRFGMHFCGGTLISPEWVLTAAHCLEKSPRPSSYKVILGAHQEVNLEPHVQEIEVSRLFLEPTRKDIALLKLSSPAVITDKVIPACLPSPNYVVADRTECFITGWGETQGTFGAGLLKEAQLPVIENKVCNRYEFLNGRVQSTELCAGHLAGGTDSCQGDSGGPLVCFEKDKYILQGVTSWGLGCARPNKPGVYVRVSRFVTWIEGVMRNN
plasmin, sequence (P00747 97-580 partner limits assumed): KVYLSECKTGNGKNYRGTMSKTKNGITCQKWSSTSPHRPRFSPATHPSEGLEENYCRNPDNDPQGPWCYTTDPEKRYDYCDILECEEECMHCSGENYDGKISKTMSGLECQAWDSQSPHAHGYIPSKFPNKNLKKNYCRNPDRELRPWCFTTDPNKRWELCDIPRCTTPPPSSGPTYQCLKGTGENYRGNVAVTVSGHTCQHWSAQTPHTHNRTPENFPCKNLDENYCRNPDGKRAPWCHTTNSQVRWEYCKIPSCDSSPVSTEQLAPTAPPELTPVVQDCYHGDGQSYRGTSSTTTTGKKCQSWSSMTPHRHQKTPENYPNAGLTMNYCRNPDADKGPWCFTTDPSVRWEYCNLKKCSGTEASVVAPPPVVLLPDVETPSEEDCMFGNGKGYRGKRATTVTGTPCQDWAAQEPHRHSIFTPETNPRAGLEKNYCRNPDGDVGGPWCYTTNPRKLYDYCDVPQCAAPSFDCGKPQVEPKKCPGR
Description: as §3, §4

plasma kallikrein = plasma kallikrein (Homo sapiens, UniProt P03952); assay: Determination of inhibition constants for PK; type: biochemical; design: purchased Enzyme Research Lab. / Enzyme Research Laboratories; details: 25° C., substrate S2302, pH 8.0; read-out: PK [Ki]
plasma kallikrein, sequence (P03952 391-638 limits assumed): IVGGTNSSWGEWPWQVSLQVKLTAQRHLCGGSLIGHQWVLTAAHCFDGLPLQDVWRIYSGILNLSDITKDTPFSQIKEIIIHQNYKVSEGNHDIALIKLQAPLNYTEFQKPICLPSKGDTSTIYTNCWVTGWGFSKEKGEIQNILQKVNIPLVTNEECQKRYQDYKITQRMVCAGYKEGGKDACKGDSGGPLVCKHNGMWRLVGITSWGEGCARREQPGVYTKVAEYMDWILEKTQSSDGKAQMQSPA
plasma kallikrein, sequence (P03952 20-390 partner limits assumed): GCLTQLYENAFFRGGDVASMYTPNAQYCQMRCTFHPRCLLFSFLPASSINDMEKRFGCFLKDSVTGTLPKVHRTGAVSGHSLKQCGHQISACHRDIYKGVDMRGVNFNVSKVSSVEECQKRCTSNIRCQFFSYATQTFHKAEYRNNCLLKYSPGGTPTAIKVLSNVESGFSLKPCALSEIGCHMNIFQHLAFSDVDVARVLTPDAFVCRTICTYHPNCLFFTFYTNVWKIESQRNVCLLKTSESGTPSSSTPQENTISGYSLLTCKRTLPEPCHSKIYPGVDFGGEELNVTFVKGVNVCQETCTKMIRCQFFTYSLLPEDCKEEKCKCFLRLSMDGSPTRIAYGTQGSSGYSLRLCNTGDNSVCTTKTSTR
Description: as §3, §4

[3] = 25° C., substrate Chromozym PL, pH 8.0, read-out: Plasmin [Ki]

Structure (SMILES)	IC50 [1]	IC50 [2]	Ki (Xa)	Ki (Thrombin)	Ki (plasmin; [3])	Ki (plasmin; summary of results, read-out: Ki value of the plasmin inhibition)	Ki (plasma kallikrein)
N=C(N)c1ccc(CNC(=O)[C@H](CCc2ccc(CN)cc2)NC(=O)[C@@H](CC2CCCCC2)NS(=O)(=O)Cc2ccccc2)cc1 [compound 37]			< 100 nM	< 100 nM	< 100 nM		< 100 nM
N=C(N)c1ccc(CNC(=O)[C@H](Cc2cccc(CN)c2)NC(=O)[C@@H](CCCC2CCCCC2)NS(=O)(=O)Cc2ccccc2)cc1 [compound 21]			< 100 nM	< 1000 nM	< 10 nM		< 10 nM
N=C(N)c1ccc(CNC(=O)[C@H](Cc2cccc(CN)c2)NC(=O)[C@@H](CCc2ccc(O)cc2)NS(=O)(=O)Cc2ccccc2)cc1 [compound 24]			< 10 nM	< 1000 nM	< 10 nM		< 10 nM
N=C(N)c1ccc(CNC(=O)[C@H](Cc2cccc(CN)c2)NC(=O)[C@@H](Cc2ccc3ccccc3c2)NS(=O)(=O)Cc2ccccc2)cc1 [compound 17]			< 100 nM	< 1000 nM	< 10 nM		< 10 nM

Results, then the compound that gave them:

IC50 [1]	IC50 [2]	Ki (Xa)	Ki (Thrombin)	Ki (plasmin; [3])	Ki (plasmin; summary of results, read-out: Ki value of the plasmin inhibition)	Ki (plasma kallikrein)	Structure (SMILES)
2750 nM	4220 nM						NC[C@H]1CC[C@H](C(=O)O)CC1 [tranexamic acid, trans-4-(aminomethyl)cyclo-hexanecarboxylic acid]
		< 1000 nM	< 100 nM	< 10 nM	< 5 nM	< 10 nM	N=C(N)c1ccc(CNC(=O)[C@H](CCc2ccncc2)NC(=O)[C@H](NS(=O)(=O)Cc2ccccc2)C2Cc3ccccc3C2)cc1 [compound 46]
		< 1000 nM	> 1000 nM	< 100 nM		< 10 nM	CC(C)(C)OC(=O)NCCCC[C@@H](NS(=O)(=O)Cc1ccc(C(=O)O)cc1)C(=O)N[C@@H](Cc1cccc(CN)c1)C(=O)NCc1ccc(C(=N)N)cc1 [compound 58]
		< 100 nM	> 1000 nM	< 10 nM		< 10 nM	CC(C)(C)OC(=O)NCCCC[C@@H](NS(=O)(=O)Cc1ccccc1)C(=O)N[C@@H](Cc1cccc(CN)c1)C(=O)NCc1ccc(C(=N)N)cc1 [compound 57]
		< 100 nM	< 10 nM	< 10 nM		< 100 nM	N=C(N)c1ccc(CNC(=O)[C@H](CCc2ccncc2)NC(=O)[C@@H](CC2CCCCC2)NS(=O)(=O)Cc2ccccc2)cc1 [compound 43]
